Assay results published in patent publication US20100190795A1, “BETULIN DERIVED COMPOUNDS USEFUL AS ANTIPROTOZOAL AGENTS” (Valtion Teknillinen tutkimuskeskus, priority 2006, published 2010).

System: Leishmania
Assay: Alamar Blue determination of activity against Leishmania (single concentration and GI50)
Format: cell-based, Leishmania donovani, L. tropica
Details: for activity against leishmaniasis: statement in words in the description; for inhibition at 50 µM: Leishmania, compound concentration 50 µM; for GI50: concentrations between 50 and 0.01 μM
Method: Leishmania donovani MHOM/SD/1962/1S-012D and L. tropica MHOM/IS/1990/LRC-L590 protozoa were used in the tests.
Promastigotes were grown in a broth containing Medium-199 (Sigma, St. Louis, Mo.) supplemented with 2 mM L-glutamine, 100 μM adenosine, 23 μM folio acid, antibiotics (100 IU penicillin G and 100 μg/ml streptomycin), 1×BME vitamin mixture, 25 mM 2-(N-morpholin)ethanesulfonic acid (MES), 4.2 mM NaHCO3 and heat treated fetal calf serum (FCS, 10% v/v), pH being adjusted to 6.8, Promastigotes were grown at 26° C.
Axenic amastigotes of L. donovani were grown according to the procedure presented by Debrabant et al., 2004, in the RPMI 1640 broth containing 20% v/v of fetal calf serum (FCS), at 37° C., pH 5.5, Axenic amastigotes of L. tropica were grown as described for L. donovani with the exception that only 10% v/v FCS was used, at 36° C. without CO2.
Each dilution with the desired concentration of the parasite was dispensed as three parallel samples (250 μl/well) to a 96 well microtiter plate having a flat bottom (NUNC, Denmark), followed by the addition of Alamar Blue reagent (25 μl/well, ENCO). The plates were read (λcm=544 nm; λex2=590 nm) after following incubation times (3, 9, 24, 48 and 72 h) using a fluorescence microtiter plate reader (Fluoroskan, Ascent Fla., Finland).
Activity of the compounds was tested both for L. donovani and L. tropica species. Promastigotes (2×10^6 cells/ml) or axenic amastigotes (5.0×10^5 cells/ml) were introduced as three parallel samples (125 μl/well) to 96 well microtiter plates having flat bottoms, the wells containing each compound diluted in the cultivation broth (125 with final concentration of DMSO of 1%), Initially, the concentration of the compounds was […]. Amphotericin B (1 μM) was included as positive control (Sigma, St. Louis, Mo.), Broth containing DMSO was used as negative control. The parasites were tested either with or without the compounds by incubating at 26° C. (promastigotes), at 36° C. (axenic amastogotes of L. tropica) or at 37° C. (axenic amastogotes of L. donovani). After 24 hours, the Alamar Blye reagent (25 μl/well) was added, the plates were still incubater for 24 hours, followed by fluorescence determination. GI50 assay was carried out using the same procedure, the concentrations of the compounds to be tested ranging, however, between 50 and 0.01 μM.
Testing of the compounds was carried out as described in example 32.

[1] = Table 4, 24 h, then Alamar Blue 24 h, fluorescence, species and stage not given
[2] = Table 5, tested as in example 32, species and stage not stated

| Compound | Inhibition of Leishmania (%) [1] [%] | Inhibition of Leishmania (%) [2] [%] | also measured |
| --- | --- | --- | --- |
| 28-carboxymethoxy mentholester of betulin [betulin 28-carboxymethoxy mentholester] | 16.6 |  |  |
| C=C(C)[C@@H]1CC[C@]2(CO)CC[C@]3(C)[C@H](CC[C@@H]4[C@@]5(C)CC=CC(C)(C)[C@@H]5CC[C@]43C)[C@@H]12 [2,3-didehydro-3-deoxybetulin, reference compound] | 13.2 |  |  |
| CC(C)[C@@H]1CC[C@]2(C(=O)O)CC[C@]3(C)[C@H](CC[C@@H]4[C@@]5(C)CCC(=O)C(C)(C)[C@@H]5CC[C@]43C)[C@@H]12 [20,29-hydrobetulonic acid, 20,29-dihydrobetulonic acid] | 73.4 |  |  |
| C=C(C)[C@@H]1CC[C@]2(COC(=O)c3ccccc3NC(C)=O)CC[C@]3(C)C(CCC4[C@@]5(C)CC[C@H](O)C(C)(C)C5CC[C@]43C)C12 (stereo partly shown) [28-N-acetylanthranilic acid ester of betulin] | 59.2 |  | activity against leishmaniasis: considerable activity |
| C=C(C)C1CCC2(COC(C)=O)CCC3(C)C(CCC4C5(C)CCC(=O)C(C)(C)C5CCC43C)C12 (stereo not shown) [28-acetate of betulonic alcohol] | 40.6 |  |  |
| C=C(C)C1CCC2(C(=O)NC(CC(=O)OC)C(=O)OC)CCC3(C)C(CCC4C5(C)CCC(=O)C(C)(C)C5CCC43C)C12 (stereo not shown) [28-aspartateamide dimethyl ester of betulonic acid] | 69.3 |  | activity against leishmaniasis: considerable activity |
| C=C(C)C1CCC2(C(=O)OC)CCC3(C)C(CCC4C5(C)CCC(=O)C(C)(C)C5CCC43C)C12 (stereo not shown) [28-methylester of betulonic acid] | 40.1 |  |  |
| C[C@@H]1[C@H](O)[C@@H](C)/C=C/C=C/C=C/C=C/C=C/C=C/C=C/[C@H](O[C@@H]2O[C@H](C)[C@@H](O)[C@H](N)[C@@H]2O)C[C@@H]2O[C@](O)(C[C@@H](O)C[C@@H](O)[C@H](O)CC[C@@H](O)C[C@@H](O)CC(=O)O[C@H]1C)C[C@H](O)[C@H]2C(=O)O [amphotericine B, Amphotericin B, reference compound] |  |  | Inhibition of Leishmania (%) (Table 4, positive control at 1 μM): 55.4%; Inhibition of Leishmania (%) (Table 5, positive control at 1 μM): 55.4% |
| C=C(C)[C@@H]1CC[C@]2(/C=N/O)CC[C@]3(C)[C@H](CC[C@@H]4[C@@]5(C)CC/C(=N\O)C(C)(C)[C@@H]5CC[C@]43C)[C@@H]12 [betulin 3,28-dioxime] | 72.4 |  |  |
| C=C(C)C1CCC2(C#N)CCC3(C)C(CCC4C5(C)CCC(=NOC(C)=O)C(C)(C)C5CCC43C)C12 (stereo not shown) [betulin 3-acetoxyoxime-28-nitrile] | 66.4 |  | activity against leishmaniasis: considerable activity |
| C=C(C)[C@@H]1CC[C@]2(COC(=O)C3C(C=C(C)C)C3(C)C)CC[C@]3(C)[C@H](CC[C@@H]4[C@@]5(C)CC[C@H](O)C(C)(C)[C@@H]5CC[C@]43C)[C@@H]12 (stereo partly shown) [betulin 28-chrysanthemate, 28-chrysanthemate of betulin] | 13.4 |  |  |
| C=C(C)[C@@H]1CC[C@]2(/C=N/O)CC[C@]3(C)[C@H](CC[C@@H]4[C@@]5(C)CC[C@H](O)C(C)(C)[C@@H]5CC[C@]43C)[C@@H]12 [betulin 28-oxime] | 66.8 |  |  |
| C=C(C)[C@@H]1CC[C@]2(CO)CC[C@]3(C)[C@H](CC[C@@H]4[C@@]5(C)CC[C@H](O)C(C)(C)[C@@H]5CC[C@]43C)[C@@H]12 [betulin, lup-20(29)-ene-3β,28-diol] |  |  | inhibition at 50 µM [1]: 35% |
| C=C(C)[C@@H]1CC[C@]2(C(=O)O)CC[C@]3(C)[C@H](CC[C@@H]4[C@@]5(C)CC[C@H](O)C(C)(C)[C@@H]5CC[C@]43C)[C@@H]12 [betulinic acid, reference compound] |  |  | inhibition at 50 µM [1]: 39.8% |
| C=C(C)[C@@H]1CC[C@]2(C=O)CC[C@]3(C)[C@H](CC[C@@H]4[C@@]5(C)CC[C@H](O)C(C)(C)[C@@H]5CC[C@]43C)[C@@H]12 [betulinic aldehyde, reference compound] |  |  | inhibition at 50 µM [1]: 65% |
| C=C(C)[C@@H]1CC[C@]2(C(=O)O)CC[C@]3(C)[C@H](CC[C@@H]4[C@@]5(C)CCC(=O)C(C)(C)[C@@H]5CC[C@]43C)[C@@H]12 [betulonic acid] | 97.6 |  | activity against leishmaniasis: considerable activity |
| C=C(C)[C@@H]1CC[C@]2(CO)CC[C@]3(C)[C@H](CC[C@@H]4[C@@]5(C)CCC(=O)C(C)(C)[C@@H]5CC[C@]43C)[C@@H]12 [betulonic alcohol] | 44.0 |  |  |

| Compound | Inhibition of Leishmania (%) [1] [%] | Inhibition of Leishmania (%) [2] [%] | also measured |
| --- | --- | --- | --- |
| C=C(C)[C@@H]1CC[C@]2(C=O)CC[C@]3(C)[C@H](CC[C@@H]4[C@@]5(C)CCC(=O)C(C)(C)[C@@H]5CC[C@]43C)[C@@H]12 [betulonic aldehyde, reference compound] | 46.2 |  |  |
| Dials-Alder adduct of 3β,28-diacetoxylupa-12,18-diene and p-chloro-4-phenylurazole |  | 27.3 |  |
| Diels-Alder adduct of 3β,28-diacetoxylupa-12,18-diene and 1,3-dioxol-5-ylurazole |  | 52.2 | activity against leishmaniasis: considerable activity |
| Diels-Alder adduct of 3β,28-diacetoxylupa-12,18-diene and 1-naphthylurazole |  | 57.7 | activity against leishmaniasis: considerable activity |
| Diels-Alder adduct of 3β,28-diacetoxylupa-12,18-diene and 4-benzoylurazole |  | 24.7 |  |
| Diels-Alder adduct of 3β,28-diacetoxylupa-12,18-diene and 4-methylurazole |  | 98.2 | GI50 (Table 5): 8.9 µM; activity against leishmaniasis: considerable activity |
| Diels-Alder adduct of 3β,28-diacetoxylupa-12,18-diene and 4-phenylurazole |  | 36.2 |  |
| Diels-Alder adduct of 3β,28-diacetoxylupa-12,18-diene and indan-5-yl urazole |  | 22.5 |  |
| Diels-Alder adduct of 3β,28-diacetoxylupa-12,18-diene and m-chloro-4-phenylurazole |  | 29.7 |  |
| Diels-Alder adduct of 3β,28-diacetoxylupa-12,18-diene and m-methoxy-4-phenylurazole |  | 43.5 |  |
| Diels-Alder adduct of 3β,28-diacetoxylupa-12,18-diene and m-nitroxy-4-phenylurazole |  | 29.5 |  |
| Diels-Alder adduct of 3β,28-diacetoxylupa-12,18-diene and p-acetoxy-4-phenylurazole |  | 44.7 |  |
| Diels-Alder adduct of 3β,28-diacetoxylupa-12,18-diene and p-fluoro-4-phenylurazole |  | 47.8 |  |
| Diels-Alder adduct of 3β,28-diacetoxylupa-12,18-diene and urazole |  | 87.6 | GI50 (Table 5): 25.5 µM; activity against leishmaniasis: considerable activity |
| Diels-Alder adduct of lupa-12,18-diene and 4-methylurazole |  | 50.0 |  |
| Diels-Alder adduct of lupa-12,18-diene and 4-phenylurazole |  | 47.5 |  |
| betulin 28-acetic acid methyl ester [betulin 28-acetic acid methylester] |  |  | Inhibition of Leishmania (%) (Table 4, compound concentration, 24 h, then Alamar Blue 24 h, fluorescence, species and stage not given): 95.3%; activity against leishmaniasis: considerable activity |
